Among the data in PubChem BioAssay AID328 (DTP/NCI, 2004) are T/C values, retold here.

Values joined by “and” are separate entries in the source; they are usually repeats but may differ in a detail not shown here. Identical values can stand only once. Inconclusive results and toxic doses are left out.

The test system of this assay is BDF1 mice, P388 leukemia ip, median survival T/C. Briefly: NCI In Vivo Anticancer Drug Screen. Data for tumor model P388 Leukemia (intraperitoneal) in B6D2F1 (BDF1) mice. The settings on record: endpoint: median survival time, higher = longer survival. The method, boiled down: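 Steps: implant the tumour, treat one group with compound and another with vehicle, record survival, then divide treated by control.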

[1] abbreviates: dose: 50.0 mg/kg/injection, schedule: Q01DX009 (ip), vehicle: saline with Tween-80.
Where [2] appears, read: dose: 100.0 mg/kg/injection, schedule: Q01DX009 (ip), vehicle: saline with Tween-80.
[3] abbreviates: dose: 200.0 mg/kg/injection, schedule: Q01DX009 (ip), vehicle: saline with Tween-80.
Setting [4] is: dose: 100.0 mg/kg/injection, schedule: Q04DX003 (ip), vehicle: Klucel (hydroxypropylcellulose) (HPC).
Setting [5] is: dose: 200.0 mg/kg/injection, schedule: Q04DX003 (ip), vehicle: Klucel (hydroxypropylcellulose) (HPC).
Setting [6] is: dose: 400.0 mg/kg/injection, schedule: Q04DX003 (ip), vehicle: Klucel (hydroxypropylcellulose) (HPC).
[7] abbreviates: dose: 25.0 mg/kg/injection, schedule: Q04DX003 (ip), vehicle: saline.
[8] abbreviates: dose: 50.0 mg/kg/injection, schedule: Q04DX003 (ip), vehicle: saline.
[9] abbreviates: dose: 100.0 mg/kg/injection, schedule: Q04DX003 (ip), vehicle: saline.
Setting [10] is: dose: 200.0 mg/kg/injection, schedule: Q04DX003 (ip), vehicle: saline.

Consider `O=C(O)c1c(C(=O)O)c(C(=O)O)c(C(=O)O)c(C(=O)O)c1C(=O)O`, for which the T/C is 107 % of control (dose: 20.0 mg/kg/injection, schedule: Q01DX009 (ip), vehicle: saline); 117 % of control (dose: 40.0 mg/kg/injection, schedule: Q01DX009 (ip), vehicle: saline); 98 % of control (dose: 80.0 mg/kg/injection, schedule: Q01DX009 (ip), vehicle: saline).

`C1OC1CO[C@H]1CO[C@H]2[C@@H]1OC[C@H]2OCC1CO1` (stereo not given in full): the T/C runs as follows: (dose: 264.0 mg/kg/injection, schedule: Q04DX003 (ip), vehicle: saline) 160 % of control and 168 % of control; (dose: 400.0 mg/kg/injection, schedule: Q04DX003 (ip), vehicle: saline) 180 % of control.

`O=C(/C=C/c1ccc(OCc2ccccc2)cc1)c1ccc(Cl)cc1Cl`: the T/C was 91 % of control under setting [1], 89 % of control under setting [2] and 89 % of control under setting [3].

With `CCCOC(=O)c1ccc(OP(=O)(N(C)C)N(C)C)cc1`, the T/C is 100 % of control under setting [1], 104 % of control under setting [2] and 100 % of control under setting [3].

`OCC(Br)(Br)Br`: the T/C was 95 % of control (dose: 100.0 mg/kg/injection, schedule: Q01DX009 (ip), vehicle: other) and 95 % of control (dose: 200.0 mg/kg/injection, schedule: Q01DX009 (ip), vehicle: other).

As to `CCCCNS(=O)(=O)c1ccc(OC)c(N)c1`, the T/C was 95 % of control under setting [4], 100 % of control under setting [5] and 100 % of control under setting [6].

Consider `CO[C@@]12[C@H](COC(N)=O)C3=C(C(=O)C(C)=C(N)C3=O)N1C[C@@H]1N[C@@H]12`, for which the T/C is 100 % of control (dose: 0.03 mg/kg/injection, schedule: Q01DX010 (ip), vehicle: water); 123 % of control (dose: 0.06 mg/kg/injection, schedule: Q01DX010 (ip), vehicle: saline); 115 % of control (dose: 0.06 mg/kg/injection, schedule: Q01DX010 (ip), vehicle: water); 168 % of control (dose: 0.13 mg/kg/injection, schedule: Q01DX010 (ip), vehicle: water); 159 % of control and 161 % of control (dose: 0.25 mg/kg/injection, schedule: Q01DX010 (ip), vehicle: saline); 200 % of control (dose: 0.25 mg/kg/injection, schedule: Q01DX010 (ip), vehicle: water). The T/C is, setting by setting: (dose: 0.5 mg/kg/injection, schedule: Q01DX010 (ip), vehicle: saline) 166 % of control and 213 % of control; (dose: 0.5 mg/kg/injection, schedule: Q01DX010 (ip), vehicle: water) 242 % of control; (dose: 1.0 mg/kg/injection, schedule: Q01DX010 (ip), vehicle: saline) 250 % of control and 180 % of control; (dose: 1.0 mg/kg/injection, schedule: Q01DX010 (ip), vehicle: water) 215 % of control; (dose: 1.08 mg/kg/injection, schedule: Q04DX003 (ip), vehicle: saline) 194 % of control and 196 % of control; (dose: 1.8 mg/kg/injection, schedule: Q04DX003 (ip), vehicle: saline) 243 % of control and 222 % of control. The T/C runs as follows: (dose: 2.0 mg/kg/injection, schedule: Q01DX010 (ip), vehicle: saline) 90 % of control and 114 % of control; (dose: 2.0 mg/kg/injection, schedule: Q01DX010 (ip), vehicle: water) 105 % of control; (dose: 3.0 mg/kg/injection, schedule: Q04DX003 (ip), vehicle: saline) 236 % of control and 244 % of control; (dose: 4.0 mg/kg/injection, schedule: Q01DX001 (ip), vehicle: saline) 157 % of control; (dose: 5.0 mg/kg/injection, schedule: Q04DX003 (ip), vehicle: saline) 90 % of control and 112 % of control; (dose: 6.0 mg/kg/injection, schedule: Q01DX001 (ip), vehicle: saline) 176 % of control. For the same molecule, the T/C (dose: 8.0 mg/kg/injection, schedule: Q01DX001 (ip), vehicle: saline) is 176 % of control.

For `O=C(Nc1ccccc1)c1c(O)[nH]c(=S)[nH]c1=O`, the T/C (dose: 50.0 mg/kg/injection, schedule: Q01DX005 (ip), vehicle: saline with Tween-80) is 194 % of control.

As for `O=C(/C=C/c1ccc2c(c1)OCO2)/C=C/c1ccc2c(c1)OCO2`, the T/C is, setting by setting: (dose: 12.5 mg/kg/injection, schedule: Q01DX009 (ip), vehicle: saline) 101 % of control; (dose: 12.5 mg/kg/injection, schedule: Q04DX003 (ip), vehicle: saline) 105 % of control; (dose: 25.0 mg/kg/injection, schedule: Q01DX009 (ip), vehicle: saline) 96 % of control; under setting [7], 112 % of control; under setting [8], 114 % of control; under setting [9], 114 % of control. In addition, the T/C by setting is: (dose: 200.0 mg/kg/injection, schedule: Q01DX009 (ip), vehicle: saline) 92 % of control; under setting [10], 114 % of control.

As to `CN(C)c1ccc(/C=C\c2cc(=O)[nH]c3ccccc23)cc1`, the T/C runs as follows: under setting [4], 87 % of control; under setting [5], 91 % of control; under setting [6], 87 % of control.

For `Nc1cc(C(=O)Nc2ccc(CCNC3=NCCN3)cc2)ccc1C(=O)Nc1ccc(CCNC2=NCCN2)cc1`, the T/C runs as follows: (dose: 2.6 mg/kg/injection, schedule: Q01DX009 (ip), vehicle: saline with Tween-80) 123 % of control; (dose: 5.0 mg/kg/injection, schedule: Q04DX003 (ip), vehicle: saline with Tween-80) 109 % of control and 113 % of control; (dose: 6.0 mg/kg/injection, schedule: Q01DX009 (ip), vehicle: saline with Tween-80) 157 % of control; (dose: 6.7 mg/kg/injection, schedule: Q01DX009 (ip), vehicle: saline with Tween-80) 157 % of control; (dose: 8.0 mg/kg/injection, schedule: Q04DX003 (ip), vehicle: saline with Tween-80) 118 % of control; (dose: 10.0 mg/kg/injection, schedule: Q01DX009 (ip), vehicle: saline with Tween-80) 192 % of control and 215 % of control. The T/C by setting is: (dose: 10.0 mg/kg/injection, schedule: Q04DX003 (ip), vehicle: saline with Tween-80) 109 % of control; (dose: 12.0 mg/kg/injection, schedule: Q04DX003 (ip), vehicle: saline with Tween-80) 118 % of control; (dose: 15.0 mg/kg/injection, schedule: Q01DX009 (ip), vehicle: saline with Tween-80) 230 % of control; (dose: 18.0 mg/kg/injection, schedule: Q04DX003 (ip), vehicle: saline with Tween-80) 150 % of control and 163 % of control; (dose: 20.0 mg/kg/injection, schedule: Q01DX009 (ip), vehicle: saline with Tween-80) 230 % of control; (dose: 20.0 mg/kg/injection, schedule: Q04DX003 (ip), vehicle: saline with Tween-80) 163 % of control. Moreover, the T/C reads like this: (dose: 26.0 mg/kg/injection, schedule: Q04DX003 (ip), vehicle: saline with Tween-80) 150 % of control and 177 % of control; (dose: 40.0 mg/kg/injection, schedule: Q04DX003 (ip), vehicle: saline with Tween-80) 250 % of control and 200 % of control; (dose: 60.0 mg/kg/injection, schedule: Q04DX003 (ip), vehicle: saline with Tween-80) 162 % of control.

Regarding `C[C@]12CCC(=O)C=C1CC[C@@H]1[C@@H]2[C@@H](O)C[C@@]2(C)[C@H]1CC[C@]2(O)C(=O)COC(=O)CCC(=O)O`, the T/C by setting is: (dose: 50.0 mg/kg/injection, schedule: Q01DX009 (sc), vehicle: steriod suspending solution) 111 % of control; (dose: 100.0 mg/kg/injection, schedule: Q01DX009 (sc), vehicle: steriod suspending solution) 111 % of control; (dose: 100.0 mg/kg/injection, schedule: Q04DX003 (sc), vehicle: steriod suspending solution) 100 % of control; (dose: 200.0 mg/kg/injection, schedule: Q01DX009 (sc), vehicle: steriod suspending solution) 116 % of control; (dose: 200.0 mg/kg/injection, schedule: Q04DX003 (sc), vehicle: steriod suspending solution) 104 % of control; (dose: 400.0 mg/kg/injection, schedule: Q01DX009 (sc), vehicle: steriod suspending solution) 111 % of control. For the same molecule, under “dose: 400.0 mg/kg/injection, schedule: Q04DX003 (sc), vehicle: steriod suspending solution”, the T/C is 100 % of control.

`OCCCN1CCC2(CC1)SSC1(CCN(CCCO)CC1)S2`: the T/C reads like this: under setting [8], 95 % of control; under setting [9], 100 % of control and 109 % of control; under setting [10], 100 % of control and 104 % of control.

As to `CSc1ccc2c(c1)C(N1CCN(C)CC1)Cc1ccccc1S2` (stereo not given), the T/C is 113 % of control (dose: 6.25 mg/kg/injection, schedule: Q04DX003 (ip), vehicle: saline); 114 % of control under setting [7]; 107 % of control under setting [8].
